The text below walks through data of ChEMBL document CHEMBL4699437, “New insights into ethionamide metabolism: influence of oxidized methionine on its degradation path” (RSC Med Chem, 2020).

The term pKa denotes the pH at which an ionisable group is half protonated.

The data set is described as follows: Acid dissociation constant, pKa of the compound.

As for `CCc1cc(C(N)=S)ccn1` [ETHIONAMIDE], the pKa is 11.9.
